Assay results taken from patent US20220388964A1 (HiberCell, Inc., priority 2019, published 2022).

Molecular target: GCN2 (Homo sapiens, UniProt Q9P2K8)
Test: TR-FRET biochemical assay for inhibition of GCN2 (Example 106, for Example 1-4BB)

Sequence of GCN2 (Q9P2K8 whole entry): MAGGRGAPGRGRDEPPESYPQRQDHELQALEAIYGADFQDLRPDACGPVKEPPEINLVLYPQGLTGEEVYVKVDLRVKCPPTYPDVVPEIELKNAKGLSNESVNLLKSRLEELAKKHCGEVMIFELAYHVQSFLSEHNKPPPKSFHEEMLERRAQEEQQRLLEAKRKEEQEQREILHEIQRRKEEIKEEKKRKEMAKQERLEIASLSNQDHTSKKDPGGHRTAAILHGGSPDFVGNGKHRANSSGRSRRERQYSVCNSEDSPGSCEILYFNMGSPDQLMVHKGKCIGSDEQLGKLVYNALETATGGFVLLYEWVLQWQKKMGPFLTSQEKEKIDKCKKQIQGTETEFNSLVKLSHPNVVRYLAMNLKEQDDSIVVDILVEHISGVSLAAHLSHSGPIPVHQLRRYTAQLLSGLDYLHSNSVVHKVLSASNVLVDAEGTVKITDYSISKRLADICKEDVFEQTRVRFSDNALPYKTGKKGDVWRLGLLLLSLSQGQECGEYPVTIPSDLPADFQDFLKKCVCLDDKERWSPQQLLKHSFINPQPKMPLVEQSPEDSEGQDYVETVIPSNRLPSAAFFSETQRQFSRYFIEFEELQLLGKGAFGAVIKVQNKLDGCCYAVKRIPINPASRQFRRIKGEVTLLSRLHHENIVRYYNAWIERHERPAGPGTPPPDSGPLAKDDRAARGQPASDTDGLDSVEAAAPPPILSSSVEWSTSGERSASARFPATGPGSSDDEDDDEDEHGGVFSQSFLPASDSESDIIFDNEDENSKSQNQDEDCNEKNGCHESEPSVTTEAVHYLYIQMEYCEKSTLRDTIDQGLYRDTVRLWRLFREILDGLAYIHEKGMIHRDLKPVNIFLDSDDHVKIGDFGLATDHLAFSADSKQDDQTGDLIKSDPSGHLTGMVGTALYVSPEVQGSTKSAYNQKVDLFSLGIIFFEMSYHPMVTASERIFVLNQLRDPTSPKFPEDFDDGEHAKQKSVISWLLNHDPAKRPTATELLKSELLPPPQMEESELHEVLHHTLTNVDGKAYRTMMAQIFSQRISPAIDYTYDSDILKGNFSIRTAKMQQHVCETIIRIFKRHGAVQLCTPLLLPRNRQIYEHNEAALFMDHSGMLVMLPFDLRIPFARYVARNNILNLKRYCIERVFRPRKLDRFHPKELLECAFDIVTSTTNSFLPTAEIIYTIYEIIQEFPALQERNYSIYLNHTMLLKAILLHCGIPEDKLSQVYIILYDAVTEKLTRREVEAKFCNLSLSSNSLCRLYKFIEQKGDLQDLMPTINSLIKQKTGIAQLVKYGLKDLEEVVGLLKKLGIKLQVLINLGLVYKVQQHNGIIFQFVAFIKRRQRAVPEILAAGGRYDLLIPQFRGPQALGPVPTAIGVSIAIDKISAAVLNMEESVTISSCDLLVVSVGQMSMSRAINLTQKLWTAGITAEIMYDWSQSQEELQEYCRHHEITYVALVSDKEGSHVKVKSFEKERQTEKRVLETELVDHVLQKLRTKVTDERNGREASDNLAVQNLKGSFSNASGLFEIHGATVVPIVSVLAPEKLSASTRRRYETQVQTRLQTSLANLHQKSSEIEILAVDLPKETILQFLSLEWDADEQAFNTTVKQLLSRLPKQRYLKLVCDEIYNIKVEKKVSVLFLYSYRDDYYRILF

Structure (SMILES) | IC50 (Table 8) [nM] | IC50 (Table 9) [nM]
O=S(=O)(Nc1ccc(F)c(-c2ccc3c(-c4ncc[nH]4)n[nH]c3c2F)c1F)c1cccnc1Cl [Example 2BM, 2-chloro-N-(2,4-difluoro-3-(7-fluoro-3-(1H-imidazol-2-yl)-1H-indazol-6-yl)phenyl)-pyridine-3-sulfonamide] | < 500 | 
NC(=O)c1n[nH]c2c(F)c(-c3c(F)ccc(NS(=O)(=O)c4cc(F)cc5c4CCC5O)c3F)ccc12 (stereo not drawn) [Example 4R] |  | < 500
COc1ncc(F)cc1S(=O)(=O)Nc1cccc(-c2ccc3c(C4CCC(=O)N4)n[nH]c3c2F)c1F (stereo not drawn) [Example 12, 5-Fluoro-N-(2-fluoro-3-(7-fluoro-3-(5-oxopyrrolidin-2-yl)-1H-indazol-6-yl)phenyl)-2-methoxypyridine-3-sulfonamide] |  | > 10000
Cc1noc(C)c1S(=O)(=O)Nc1ccc(F)c(-c2ccc3c(-c4ncc[nH]4)n[nH]c3c2F)c1F [Example 2AZ, N-(2,4-difluoro-3-(7-fluoro-3-(1H-imidazol-2-yl)-1H-indazol-6-yl)phenyl)-3,5-dimethylisoxazole-4-sulfonamide] | < 500 | 
COc1ncc(F)cc1S(=O)(=O)Nc1ccc(F)c(-c2ccc3c(C(=O)N[C@H]4CCN(C)C4)n[nH]c3c2F)c1F [Example 3AC, 6-(3-((5-fluoro-2-methoxy-pyridine)-3-sulfonamido)-2,6-difluorophenyl)-7-fluoro-N-((S)-1-methylpyrrolidin-3-yl)-1H-indazole-3-carboxamide] |  | 500 to 2500
Cc1c(CO)cc(F)cc1S(=O)(=O)Nc1ccc(F)c(-c2ccc3c(C(=O)Nc4cn[nH]c4)n[nH]c3c2F)c1F [Example 4K] |  | < 500
Cc1ccc(S(=O)(=O)Nc2ccc(F)c(-c3ccc4c(C(=O)Nc5cnoc5)n[nH]c4c3F)c2F)c(C)n1 [Example 3DG, 6-(3-((2,6-dimethylpyridine)-3-sulfonamido)-2,6-difluoro-phenyl)-7-fluoro-N-(isoxazol-4-yl)-1H-indazole-3-carboxamide] |  | < 500
COc1ccc(NS(=O)(=O)c2cc(F)cnc2OC)c(F)c1-c1ccc2c(C(=O)NCCCO)n[nH]c2c1F [Example 25, 7-Fluoro-6-(2-fluoro-3-((5-fluoro-2-methoxypyridine)-3-sulfonamido)-6-methoxyphenyl)-N-(3-hydroxypropyl)-1H-indazole-3-carboxamide] |  | 2500 to 10000
Cc1c(CO)cc(F)cc1S(=O)(=O)Nc1ccc(F)c(-c2ccc3c(C(N)=O)n[nH]c3c2F)c1F [Example 4G] |  | < 500
Cc1n[nH]c2cc(-c3c(F)ccc(NS(=O)(=O)c4cc(F)ccc4F)c3F)ccc12 [Example 2CC, N-(2,4-difluoro-3-(3-methyl-1H-indazol-6-yl)phenyl)-2,5-difluorobenzenesulfonamide] | 2500 to 10000 | 
COc1ncc(Cl)cc1S(=O)(=O)Nc1ccc(F)c(-c2ccc3c(C(N)=O)n[nH]c3c2F)c1F [Example 2Z, 6-(3-((5-chloro-2-methoxy-pyridine)-3-sulfonamido)-2,6-difluorophenyl)-7-fluoro-1H-indazole-3-carboxamide] | < 500 | 
COc1ncc(Cl)cc1S(=O)(=O)Nc1ccc(F)c(-c2ccc3c(C(=O)N[C@H]4CCN(C)C4)n[nH]c3c2F)c1F [Example 3AF, 6-(3-((5-chloro-2-methoxy-pyridine)-3-sulfonamido)-2,6-difluorophenyl)-7-fluoro-N-((S)-1-methylpyrrolidin-3-yl)-1H-indazole-3-carboxamide] |  | < 500
COc1ncc(C#N)cc1S(=O)(=O)Nc1cc(F)cc(-c2ccc3c(C(=O)NCCCN(C)C)n[nH]c3c2F)c1F [Example 3CE, 6-(3-((5-cyano-2-methoxy-pyridine)-3-sulfonamido)-2,5-difluorophenyl)-N-(3-(dimethylamino)propyl)-7-fluoro-1H-indazole-3-carboxamide] |  | > 10000
COc1ncc(F)cc1S(=O)(=O)Nc1cc(C#N)cc(-c2ccc3c(-c4ncc[nH]4)n[nH]c3c2F)c1F [Example 3CB, N-(5-cyano-2-fluoro-3-(7-fluoro-3-(1H-imidazol-2-yl)-1H-indazol-6-yl)phenyl)-5-fluoro-2-methoxypyridine-3-sulfonamide] |  | > 10000
Cc1nn(C)cc1S(=O)(=O)Nc1cccc(-c2ccc3c(-c4ncc[nH]4)n[nH]c3c2F)c1F [Example 2N, N-(2-fluoro-3-(7-fluoro-3-(1H-imidazol-2-yl)-1H-indazol-6-yl)phenyl)-1,3-dimethyl-1H-pyrazole-4-sulfonamide] | 2500 to 10000 | 
COc1ncc(F)cc1S(=O)(=O)Nc1cccc(-c2ccc3c(C(=O)NCC[C@H](O)CO)n[nH]c3c2F)c1F [Example 3BG, 6-(2-fluoro-3-((5-fluoro-2-methoxypyridine)-3-sulfonamido)phenyl)-N-((S)-3,4-dihydroxybutyl)-7-fluoro-1H-indazole-3-carboxamide] |  | < 500
O=S(=O)(Nc1ccc(F)c(-c2ccc3c(-c4ncc[nH]4)n[nH]c3c2F)c1F)c1cccc(O)c1F [Example 2AQ, N-(2,4-difluoro-3-(7-fluoro-3-(1H-imidazol-2-yl)-1H-indazol-6-yl)phenyl)-2-fluoro-3-hydroxybenzene-sulfonamide] | < 500 | 

Structure (SMILES) | IC50 (Table 8) [nM] | IC50 (Table 9) [nM]
COc1ncncc1S(=O)(=O)Nc1ccc(F)c(-c2ccc3c(-c4ncc[nH]4)n[nH]c3c2F)c1F [Example 3CX, N-(2,4-difluoro-3-(7-fluoro-3-(1H-imidazol-2-yl)-1H-indazol-6-yl)phenyl)-4-methoxypyrimidine-5-sulfonamide] |  | 500 to 2500
Cc1ncc(F)cc1S(=O)(=O)Nc1ccc(F)c(-c2ccc3c(C(=O)NCCCN(C)C)n[nH]c3c2F)c1F [Example 3CI, 6-(2,6-difluoro-3-((5-fluoro-2-methylpyridine)-3-sulfonamido)phenyl)-N-(3-(dimethylamino)propyl)-7-fluoro-1H-indazole-3-carboxamide] |  | 500 to 2500
Cn1cc(S(=O)(=O)Nc2ccc(F)c(-c3ccc4c(-c5ncc[nH]5)n[nH]c4c3F)c2F)c(Cl)n1 [Example 2H, 3-chloro-N-(2,4-difluoro-3-(7-fluoro-3-(1H-imidazol-2-yl)-1H-indazol-6-yl)phenyl)-1-methyl-1H-pyrazole-4-sulfonamide] | 500 to 2500 | 
Cn1cccc(S(=O)(=O)Nc2ccc(F)c(-c3ccc4c(-c5ncc[nH]5)n[nH]c4c3F)c2F)c1=O [Example 2AJ, N-(2,4-difluoro-3-(7-fluoro-3-(1H-imidazol-2-yl)-1H-indazol-6-yl)phenyl)-1-methyl-2-oxo-1,2-dihydro-pyridine-3-sulfonamide] | 2500 to 10000 | 
COc1ncccc1S(=O)(=O)Nc1ccc(F)c(-c2ccc3c(C(=O)NCCCO)n[nH]c3c2F)c1F [Example 3BI, 6-(2,6-difluoro-3-((2-methoxypyridine)-3-sulfonamido)phenyl)-7-fluoro-N-(3-hydroxypropyl)-1H-indazole-3-carboxamide] |  | 500 to 2500
COc1ncc(F)cc1S(=O)(=O)Nc1ccc(F)c(-c2ccc3c(C(=O)NCCNC(C)=O)n[nH]c3c2F)c1F [Example 23, N-(2-Acetamidoethyl)-6-(2,6-difluoro-3-((5-fluoro-2-methoxypyridine)-3-sulfonamido)phenyl)-7-fluoro-1H-indazole-3-carboxamide] |  | 500 to 2500
Cc1cccc(F)c1S(=O)(=O)Nc1ccc(F)c(-c2ccc3c(-c4ncc[nH]4)n[nH]c3c2F)c1F [Example 2AT, N-(2,4-difluoro-3-(7-fluoro-3-(1H-imidazol-2-yl)-1H-indazol-6-yl)phenyl)-2-fluoro-6-methylbenzene-sulfonamide] | < 500 | 
COc1ncc(Cl)cc1S(=O)(=O)Nc1ccc(F)c(-c2ccc3c(C(=O)NCCCO)n[nH]c3c2F)c1F [Example 2CI, 6-(3-((5-chloro-2-methoxy-pyridine)-3-sulfonamido)-2,6-difluorophenyl)-7-fluoro-N-(3-hydroxypropyl)-1H-indazole-3-carboxamide] | < 500 | 
O=S(=O)(Nc1ccc(F)c(-c2ccc3c(-c4ncc[nH]4)n[nH]c3c2F)c1F)c1cccc(CO)c1 [Example 3, N-(2,4-Difluoro-3-(7-fluoro-3-(1H-imidazol-2-yl)-1H-indazol-6-yl)phenyl)-3-(hydroxymethyl)benzenesulfonamide] | < 500 | 
Cc1ccc(F)cc1S(=O)(=O)Nc1ncc(F)c(-c2ccc3c(-c4ncc[nH]4)n[nH]c3c2F)c1F [Example 30, N-(3,5-Difluoro-4-(7-fluoro-3-(1H-imidazol-2-yl)-1H-indazol-6-yl)pyridin-2-yl)-5-fluoro-2-methylbenzenesulfonamide] |  | < 500
COc1ncccc1S(=O)(=O)Nc1ncc(F)c(-c2ccc3c(-c4ncc[nH]4)n[nH]c3c2F)c1F [Example 2CL, N-(3,5-difluoro-4-(7-fluoro-3-(1H-imidazol-2-yl)-1H-indazol-6-yl)pyridin-2-yl)-2-methoxypyridine-3-sulfonamide] | < 500 | 
CCn1cc(S(=O)(=O)Nc2ccc(F)c(-c3ccc4c(-c5ncc[nH]5)n[nH]c4c3F)c2F)cn1 [Example 2D, N-(2,4-difluoro-3-(7-fluoro-3-(1H-imidazol-2-yl)-1H-indazol-6-yl)phenyl)-1-ethyl-1H-pyrazole-4-sulfonamide] | 2500 to 10000 | 
Cc1c(O)cccc1S(=O)(=O)Nc1ccc(F)c(-c2ccc3c(-c4ncc[nH]4)n[nH]c3c2F)c1F [Example 2AU, N-(2,4-difluoro-3-(7-fluoro-3-(1H-imidazol-2-yl)-1H-indazol-6-yl)phenyl)-3-hydroxy-2-methylbenzene-sulfonamide] | 500 to 2500 | 
COc1ncc(F)cc1S(=O)(=O)Nc1ccc(F)c(-c2ccc3c(-c4ncc[nH]4)n[nH]c3c2F)c1F [Example 2V, 5-fluoro-N-(2,4-difluoro-3-(7-fluoro-3-(1H-imidazol-2-yl)-1H-indazol-6-yl)phenyl)-2-methoxy-pyridine-3-sulfonamide] | < 500 | 
O=S(=O)(Nc1ccc(F)c(-c2ccc3c(-c4ncc[nH]4)n[nH]c3c2F)c1F)c1ccccc1Cl [Example 2BP, 2-chloro-N-(2,4-difluoro-3-(7-fluoro-3-(1H-imidazol-2-yl)-1H-indazol-6-yl)phenyl)-benzenesulfonamide] | < 500 | 
COc1nc(C)c(Cl)cc1S(=O)(=O)Nc1ccc(F)c(-c2ccc3c(C(=O)NCCCO)n[nH]c3c2F)c1F [Example 3DO, 6-(3-((5-chloro-2-methoxy-6-methylpyridine)-3-sulfon-amido)-2,6-difluorophenyl)-7-fluoro-N-(3-hydroxypropyl)-1H-indazole-3-carboxamide] |  | < 500
